Our source for the Kinact/Kl values is US20250230165A1, “HETEROCYCLIC COMPOUNDS FOR USE IN THE TREATMENT OF CANCER” (ARTIOS PHARMA LIMITED, priority 2021, published 2025).

Where a name gives a salt, the structure may show the parent alone.

The target of the experiment is T1, Human Polθ polymerase domain (aa1820-2590) (Homo sapiens, UniProt O75417).
T1 construct: Human Polθ polymerase domain (aa1820-2590) was expressed in E. coli; made in house; host or cells: E. coli
T1 sequence (O75417 1820-2590): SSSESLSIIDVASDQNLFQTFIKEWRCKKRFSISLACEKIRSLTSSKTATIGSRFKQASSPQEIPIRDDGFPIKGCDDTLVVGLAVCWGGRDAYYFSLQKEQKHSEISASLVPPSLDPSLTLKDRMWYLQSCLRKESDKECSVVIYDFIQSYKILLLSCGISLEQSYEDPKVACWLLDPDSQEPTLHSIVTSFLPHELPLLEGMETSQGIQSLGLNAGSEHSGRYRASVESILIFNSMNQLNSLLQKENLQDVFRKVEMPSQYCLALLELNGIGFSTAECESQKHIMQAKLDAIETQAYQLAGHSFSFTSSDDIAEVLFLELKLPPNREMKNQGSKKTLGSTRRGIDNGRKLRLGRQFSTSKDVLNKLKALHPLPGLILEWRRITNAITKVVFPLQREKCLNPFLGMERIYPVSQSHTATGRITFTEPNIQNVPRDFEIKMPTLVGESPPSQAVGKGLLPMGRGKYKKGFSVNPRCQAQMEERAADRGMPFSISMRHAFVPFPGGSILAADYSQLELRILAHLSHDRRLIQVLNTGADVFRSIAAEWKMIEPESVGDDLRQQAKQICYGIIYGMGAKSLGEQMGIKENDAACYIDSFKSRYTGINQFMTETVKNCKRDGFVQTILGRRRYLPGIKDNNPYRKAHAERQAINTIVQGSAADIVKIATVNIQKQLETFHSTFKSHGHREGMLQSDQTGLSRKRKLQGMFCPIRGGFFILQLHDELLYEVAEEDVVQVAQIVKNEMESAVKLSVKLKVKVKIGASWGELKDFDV
Briefly: Polθ Polymerase Domain Kinact/KI Assay (PicoGreen). The settings on record: 0.8 nM Polθ, 100 nM DNA substrate, kobs vs [I] fit for 2-step covalent inhibitor. It counts as biochemical. The method, boiled down: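 PicoGreen fluorescence read-out of primer extension; progress curves per inhibitor concentration fitted for kobs, then kobs vs [I] fitted to a two-step covalent model to give Kinact and KI. Conditions: 0.8 nM enzyme, 100 nM DNA substrate, […].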

With `C=CC(=O)Nc1cnc(CN2C[C@H]3CC(=O)N(c4cc(C(F)(F)F)cc(C)n4)[C@@H]3C(=O)N(C)c3cccc(Cl)c32)nc1` [Example 284, N-(2-(((3aR,11aS)-6-chloro-10-methyl-1-(6-methyl-4-(trifluoromethyl)pyridin-2-yl)-2,11-dioxo-1,2,3,3a,4,10,11,11a-octahydro-5H-benzo[b]pyrrolo[2,3-f][1,4]diazocin-5-yl)methyl)pyrimidin-5-yl)acrylamide], the Kinact/Kl is 770000 M⁻¹ s⁻¹.
For the compound `C=CC(=O)N1Cc2cc(CN3C[C@H]4CC(=O)N(c5cc(C(F)(F)F)cc(C)n5)[C@@H]4C(=O)N(C)c4cccc(Cl)c43)cnc2C1CO` (single isomer, unassigned) [Example 230], the Kinact/Kl turned out to be 1.01e+06 M⁻¹ s⁻¹.
Compound `C=CC(=O)N1Cc2ccc(CN3C[C@H]4CC(=O)N(c5cc(C(F)(F)F)cc(C)n5)[C@@H]4C(=O)N(C)c4cccc(C)c43)nc2[C@H]1CC#N` (racemic) [Example 318a, 2-((R/S)-6-acryloyl-2-(((3aR,11aS)-6,10-dimethyl-1-(6-meth-yl-4-(trifluorometh-yl)pyridin-2-yl)-2,11-dioxo-1,2,3,3a, 4,10,11,11a-octa-hydro-5H-benzo[b]pyrrolo[2,3-f][1,4]diazocin-5-yl)meth-yl)-6,7-dihydro-5H-pyrrolo[3,4-b]pyr-idin-7-yl)acetonitrile] returned a Kinact/Kl of 1.9e+06 M⁻¹ s⁻¹.
For `C=CC(=O)N1C[C@@H]2CN(CCN3C[C@H]4CC(=O)N(c5cc(C(F)(F)F)cc(C)n5)[C@@H]4C(=O)N(C)c4cccc(F)c43)CCN2C(=O)[C@@H]1C` (single isomer, unassigned) [Example 59], the Kinact/Kl was determined as 1.08e+06 M⁻¹ s⁻¹.
Regarding `C=CC(=O)N1CCn2cc(CN3C[C@H]4CC(=O)N(c5cc(C(F)(F)F)cc(C)n5)[C@@H]4C(=O)N(C)c4cccc(Cl)c43)nc2[C@@H]1C` (racemic) [Example 142b], the Kinact/Kl is 630000 M⁻¹ s⁻¹.
The same measure for `Cc1cc(C(F)(F)F)cc(N2C(=O)C[C@@H]3CN(CCN4CCOC5(C4)CN(C(=O)/C=C/CN(C)C)C5)c4c(F)cccc4N(C)C(=O)[C@H]32)n1` [Example 27, (3aR,11aS)-5-(2-(2-((E)-4-(dimethylamino)but-2-enoyl)-5-oxa-2,8-diazaspiro[3.5]nonan-8-yl)ethyl)-6-fluoro-10-methyl-1-(6-methyl-4-(trifluoromethyl)pyridin-2-yl)-1,3a,4,5,10,11a-hexahydro-2H-benzo[b]pyrrolo[2,3-f][1,4]diazocine-2,11(3H)-dione Hydrochloride]: 1.05e+06 M⁻¹ s⁻¹; for `C=CC(=O)N1CCN(c2cc(N3C[C@H]4CC(=O)N(c5cc(C(F)(F)F)cc(C)n5)[C@@H]4C(=O)N(C)c4cccc(F)c43)ccn2)CC1` [Example 53, (3aR,11aS)-5-(2-(4-acryloylpiperazin-1-yl)pyridin-4-yl)-6-fluoro-10-methyl-1-(6-methyl-4-(trifluoromethyl)pyridin-2-yl)-1,3a,4,5,10,11a-hexahydro-2H-benzo[b]pyrrolo[2,3-f][1,4]diazocine-2,11(3H)-dione]: 24000 M⁻¹ s⁻¹; for `C=CC(=O)N1CC2(C1)CN(C(=O)CN1C[C@H]3CC(=O)N(c4cc(C(F)(F)F)cc(C)n4)[C@@H]3C(=O)N(C)c3cccc(F)c31)c1nccn12` [Example 106, (3aR,11aS)-5-(2-(1-acryloylspiro[azetidine-3,3′-imidazo[1,2-a]imidazo]-1′(2′H)-yl)ethyl)-6-fluoro-10-methyl-1-(6-methyl-4-(trifluoromethyl)pyridin-2-yl)-1,3a,4,5,10,11a-hexahydro-2H-benzo[b]pyrrolo[2,3-f][1,4]diazocine-2,11(3H)-dione]: 1.14e+06 M⁻¹ s⁻¹.
